Legend:
[1] = target: T1, PETase (wild-type PETase, IsPETase) (Pseudideonella sakaiensis, UniProt A0A0K8P6T7, W159H/S238F); experiment: single-molecule TIRF of Qdot655-labelled PETase on PET film, competition by pNPA; type: binding; details: 4 mM pNPA; competitive with PET; also model soluble substrate; 50 mM sodium phosphate, 100 mM NaCl, pH 7.4, 22 °C
T1 construct: gene ISF6_4831

[2] = target: T2, PETase (wild-type PETase, IsPETase) (Pseudideonella sakaiensis, UniProt A0A0K8P6T7); experiment: as above; type: binding; details: 4 mM pNPA; competitive with PET; also model soluble substrate; 50 mM sodium phosphate, 100 mM NaCl, pH 7.4, 22 °C
T2 construct: gene ISF6_4831
T2 sequence (A0A0K8P6T7 28-290): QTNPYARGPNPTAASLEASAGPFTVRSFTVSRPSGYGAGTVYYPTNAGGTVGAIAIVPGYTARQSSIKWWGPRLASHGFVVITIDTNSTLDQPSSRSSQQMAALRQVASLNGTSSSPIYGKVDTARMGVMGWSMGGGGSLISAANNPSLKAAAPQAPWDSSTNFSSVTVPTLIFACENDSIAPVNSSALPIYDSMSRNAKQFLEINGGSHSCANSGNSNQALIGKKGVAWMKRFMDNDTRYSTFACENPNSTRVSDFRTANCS

T1 sequence (A0A0K8P6T7 28-290 W159H/S238F): as the sequence (A0A0K8P6T7 28-290) above, with W132H, S211F counted along it

Compound: CC(=O)Oc1ccc([N+](=O)[O-])cc1 [4-Nitrophenyl acetate]
- single-molecule TIRF of Qdot655-labelled PETase on PET film, competition by pNPA [1]: pNPA strongly diminished the landing rate of the wild-type and hyperactive mutant
- single-molecule TIRF of Qdot655-labelled PETase on PET film, competition by pNPA [2]: pNPA reduced the binding duration of wild-type PETase and the hyperactive variant

From doi:10.1101/2024.04.24.590935, “Measuring PETase enzyme kinetics by single-molecule microscopy” (bioRxiv, 2024)
